Test results from ChEMBL document CHEMBL3045802, “Synthesis and in vitro antitumor activity of new quinoline, pyrimido[4,5-b]quinoline, [1,2,3]triazino[4,5-b]quinoline, and [1,2,4]triazolo[2,3:3,4]pyrimido[6,5-b]quinoline analogs” (2013).

Columns and labels:
Type in all cases: functional
[1] = test system: HT-29; test: Cytotoxicity against Homo sapiens (human) HT-29 cells assessed as growth inhibition at 10 uM after 48 hr by coulter counter analysis; details: HT-29, 48 h, read-out: GI
[2] = test system: Hs-578T; test: Cytotoxicity against Homo sapiens (human) Hs578T cells assessed as growth inhibition at 10 uM after 48 hr by coulter counter analysis; details: read-out: GI
[3] = test system: MOLT-4; test: Cytotoxicity against Homo sapiens (human) MOLT4 cells assessed as growth inhibition at 10 uM after 48 hr by coulter counter analysis; details: MOLT-4, 48 h, read-out: GI
[4] = test system: SNB-19; test: Cytotoxicity against Homo sapiens (human) SNB19 cells assessed as growth inhibition at 10 uM after 48 hr by coulter counter analysis; details: SNB-19, 48 h, read-out: GI
[5] = test system: KM12; test: Cytotoxicity against Homo sapiens (human) KM12 cells assessed as growth inhibition at 10 uM after 48 hr by coulter counter analysis; details: KM12, 48 h, read-out: GI
[6] = test system: OVCAR-8; test: Cytotoxicity against Homo sapiens (human) OVCAR8 cells assessed as growth inhibition at 10 uM after 48 hr by coulter counter analysis; details: OVCAR-8, 48 h, read-out: GI
[7] = test system: SF-268; test: Cytotoxicity against Homo sapiens (human) SF268 cells assessed as growth inhibition at 10 uM after 48 hr by coulter counter analysis; details: SF-268, 48 h, read-out: GI
[8] = test system: UO-31; test: Cytotoxicity against Homo sapiens (human) UO31 cells assessed as growth inhibition at 10 uM after 48 hr by coulter counter analysis; details: UO-31, 48 h, read-out: GI
[9] = test system: OVCAR-3; test: Cytotoxicity against Homo sapiens (human) OVCAR3 cells assessed as growth inhibition at 10 uM after 48 hr by coulter counter analysis; details: OVCAR-3, 48 h, read-out: GI
[10] = test system: T47D; test: Cytotoxicity against Homo sapiens (human) T47D cells assessed as growth inhibition at 10 uM after 48 hr by coulter counter analysis; details: read-out: GI
[11] = test system: K562; test: Cytotoxicity against Homo sapiens (human) K562 cells assessed as growth inhibition at 10 uM after 48 hr by coulter counter analysis; details: K562, 48 h, read-out: GI
[12] = test system: IGROV-1; test: Cytotoxicity against Homo sapiens (human) IGROV1 cells assessed as growth inhibition at 10 uM after 48 hr by coulter counter analysis; details: IGROV-1, 48 h, read-out: GI
[13] = test system: UACC-257; test: Cytotoxicity against Homo sapiens (human) UACC257 cells assessed as growth inhibition at 10 uM after 48 hr by coulter counter analysis; details: UACC-257, 48 h, read-out: GI
[14] = test system: SF-539; test: Cytotoxicity against Homo sapiens (human) SF539 cells assessed as growth inhibition at 10 uM after 48 hr by coulter counter analysis; details: SF-539, 48 h, read-out: GI
[15] = test system: MDA-MB-468; test: Cytotoxicity against Homo sapiens (human) MDA-MB-468 cells assessed as growth inhibition at 10 uM after 48 hr by coulter counter analysis; details: MDA-MB-468, 48 h, read-out: GI
[16] = test system: EKVX; test: Cytotoxicity against Homo sapiens (human) EKVX cells assessed as growth inhibition at 10 uM after 48 hr by coulter counter analysis; details: read-out: GI
[17] = test system: SR; test: Cytotoxicity against Homo sapiens (human) SR cells assessed as growth inhibition at 10 uM after 48 hr by coulter counter analysis; details: read-out: GI
[18] = test system: NCI-H226; test: Cytotoxicity against Homo sapiens (human) NCI-H226 cells assessed as growth inhibition at 10 uM after 48 hr by coulter counter analysis; details: NCI-H226, 48 h, read-out: GI
[19] = test system: HCT-15; test: Cytotoxicity against Homo sapiens (human) HCT15 cells assessed as growth inhibition at 10 uM after 48 hr by coulter counter analysis; details: HCT-15, 48 h, read-out: GI
[20] = test system: SW-620; test: Cytotoxicity against Homo sapiens (human) SW620 cells assessed as growth inhibition at 10 uM after 48 hr by coulter counter analysis; details: SW-620, 48 h, read-out: GI
[21] = test system: SK-MEL-2; test: Cytotoxicity against Homo sapiens (human) SK-MEL-2 cells assessed as growth inhibition at 10 uM after 48 hr by coulter counter analysis; details: SK-MEL-2, 48 h, read-out: GI
[22] = test system: 786-0; test: Cytotoxicity against Homo sapiens (human) 786-0 cells assessed as growth inhibition at 10 uM after 48 hr by coulter counter analysis; details: 786-0, 48 h, read-out: GI
[23] = test system: RXF 393; test: Cytotoxicity against Homo sapiens (human) RXF393 cells assessed as growth inhibition at 10 uM after 48 hr by coulter counter analysis; details: RXF 393, 48 h, read-out: GI
[24] = test system: HOP-62; test: Cytotoxicity against Homo sapiens (human) HOP62 cells assessed as growth inhibition at 10 uM after 48 hr by coulter counter analysis; details: HOP-62, 48 h, read-out: GI
[25] = test system: SK-MEL-5; test: Cytotoxicity against Homo sapiens (human) SK-MEL-5 cells assessed as growth inhibition at 10 uM after 48 hr by coulter counter analysis; details: SK-MEL-5, 48 h, read-out: GI
[26] = test system: SN12C; test: Cytotoxicity against Homo sapiens (human) SN12C cells assessed as growth inhibition at 10 uM after 48 hr by coulter counter analysis; details: read-out: GI
[27] = test system: SNB-75; test: Cytotoxicity against Homo sapiens (human) SNB75 cells assessed as growth inhibition at 10 uM after 48 hr by coulter counter analysis; details: SNB-75, 48 h, read-out: GI
[28] = test system: HCC 2998; test: Cytotoxicity against Homo sapiens (human) HCC2998 cells assessed as growth inhibition at 10 uM after 48 hr by coulter counter analysis; details: HCC 2998, 48 h, read-out: GI
[29] = test system: MDA-MB-231; test: Cytotoxicity against Homo sapiens (human) MDA-MB-231 cells assessed as growth inhibition at 10 uM after 48 hr by coulter counter analysis; details: MDA-MB-231, 48 h, read-out: GI
[30] = test system: CAKI-1; test: Cytotoxicity against Homo sapiens (human) Caki1 cells assessed as growth inhibition at 10 uM after 48 hr by coulter counter analysis; details: CAKI-1, 48 h, read-out: GI
[31] = test system: HCT-116; test: Cytotoxicity against Homo sapiens (human) HCT116 cells assessed as growth inhibition at 10 uM after 48 hr by coulter counter analysis; details: HCT-116, 48 h, read-out: GI
[32] = test system: PC-3; test: Cytotoxicity against Homo sapiens (human) PC3 cells assessed as growth inhibition at 10 uM after 48 hr by coulter counter analysis; details: PC-3, 48 h, read-out: GI
[33] = test system: A549; test: Cytotoxicity against Homo sapiens (human) A549 cells assessed as growth inhibition at 10 uM after 48 hr by coulter counter analysis; details: A549, 48 h, read-out: GI
[34] = test system: COLO 205; test: Cytotoxicity against Homo sapiens (human) COLO205 cells assessed as growth inhibition at 10 uM after 48 hr by coulter counter analysis; details: COLO 205, 48 h, read-out: GI

## COc1ccc(-c2nc3c(c(=O)[nH]2)C(c2ccc(OC)c(OC)c2)C2=C(CCCC2)N3)cc1OC (configuration not stated)
[1]
  inhibition of growth at 10 µM: < 10%
[2]
  inhibition of growth at 10 µM: < 10%
[3]
  inhibition of growth at 10 µM: < 10%
[4]
  inhibition of growth at 10 µM: < 10%
[5]
  inhibition of growth at 10 µM: < 10%
[6]
  inhibition of growth at 10 µM: 12.1%
[7]
  inhibition of growth at 10 µM: 12.2%
[8]
  inhibition of growth at 10 µM: 66.3%
[9]
  inhibition of growth at 10 µM: < 10%
[10]
  inhibition of growth at 10 µM: 28.3%
[11]
  inhibition of growth at 10 µM: < 10%
[12]
  inhibition of growth at 10 µM: < 10%
[13]
  inhibition of growth at 10 µM: < 10%
[14]
  inhibition of growth at 10 µM: 14.5%
[15]
  inhibition of growth at 10 µM: 28.5%
[16]
  inhibition of growth at 10 µM: < 10%
[17]
  inhibition of growth at 10 µM: 21.4%
[18]
  inhibition of growth at 10 µM: 13.3%
[19]
  inhibition of growth at 10 µM: 10.7%
[20]
  inhibition of growth at 10 µM: < 10%
[21]
  inhibition of growth at 10 µM: < 10%
[22]
  inhibition of growth at 10 µM: < 10%
[23]
  inhibition of growth at 10 µM: 10.3%
[24]
  inhibition of growth at 10 µM: 12.3%
[25]
  inhibition of growth at 10 µM: 18.6%
[26]
  inhibition of growth at 10 µM: 15%
[27]
  inhibition of growth at 10 µM: 22.6%
[28]
  inhibition of growth at 10 µM: < 10%
[29]
  inhibition of growth at 10 µM: < 10%
[30]
  inhibition of growth at 10 µM: 13.5%
[31]
  inhibition of growth at 10 µM: < 10%
[32]
  inhibition of growth at 10 µM: 17.1%
[33]
  inhibition of growth at 10 µM: < 10%
[34]
  inhibition of growth at 10 µM: 10.3%

## COc1ccc(C2C3=C(CCCC3)Nc3[nH]c(=S)nc(NC(N)=S)c32)cc1OC (configuration not stated)
[1]
  inhibition of growth at 10 µM: < 10%
[2]
  inhibition of growth at 10 µM: 17.7%
[3]
  inhibition of growth at 10 µM: < 10%
[4]
  inhibition of growth at 10 µM: 10.4%
[5]
  inhibition of growth at 10 µM: 21.3%
[6]
  inhibition of growth at 10 µM: < 10%
[7]
  inhibition of growth at 10 µM: < 10%
[8]
  inhibition of growth at 10 µM: 43.5%
[9]
  inhibition of growth at 10 µM: < 10%
[10]
  inhibition of growth at 10 µM: 27.5%
[11]
  inhibition of growth at 10 µM: 17.6%
[12]
  inhibition of growth at 10 µM: < 10%
[13]
  inhibition of growth at 10 µM: < 10%
[14]
  inhibition of growth at 10 µM: 21.1%
[15]
  inhibition of growth at 10 µM: 14.2%
[16]
  inhibition of growth at 10 µM: < 10%
[17]
  inhibition of growth at 10 µM: 40.6%
[18]
  inhibition of growth at 10 µM: 18.6%
[19]
  inhibition of growth at 10 µM: 10.2%
[20]
  inhibition of growth at 10 µM: < 10%
[21]
  inhibition of growth at 10 µM: 12.6%
[22]
  inhibition of growth at 10 µM: < 10%
[23]
  inhibition of growth at 10 µM: 14.3%
[24]
  inhibition of growth at 10 µM: 25.4%
[25]
  inhibition of growth at 10 µM: 25.5%
[26]
  inhibition of growth at 10 µM: < 10%
[27]
  inhibition of growth at 10 µM: 20.3%
[28]
  inhibition of growth at 10 µM: < 10%
[29]
  inhibition of growth at 10 µM: 17.4%
[30]
  inhibition of growth at 10 µM: 10%
[31]
  inhibition of growth at 10 µM: < 10%
[32]
  inhibition of growth at 10 µM: 23.5%
[33]
  inhibition of growth at 10 µM: < 10%
[34]
  inhibition of growth at 10 µM: 12.8%

## COc1ccc(C2C3=C(CCCC3)Nc3ncn4nc(-c5ccccc5)nc4c32)cc1OC (configuration not stated)
[1]
  inhibition of growth at 10 µM: < 10%
[2]
  inhibition of growth at 10 µM: < 10%
[3]
  inhibition of growth at 10 µM: 19.8%
[4]
  inhibition of growth at 10 µM: < 10%
[5]
  inhibition of growth at 10 µM: < 10%
[6]
  inhibition of growth at 10 µM: 14.7%
[7]
  inhibition of growth at 10 µM: < 10%
[8]
  inhibition of growth at 10 µM: 38.7%
[9]
  inhibition of growth at 10 µM: < 10%
[10]
  inhibition of growth at 10 µM: 26.2%
[11]
  inhibition of growth at 10 µM: < 10%
[12]
  inhibition of growth at 10 µM: < 10%
[13]
  inhibition of growth at 10 µM: < 10%
[14]
  inhibition of growth at 10 µM: < 10%
[15]
  inhibition of growth at 10 µM: 23.2%
[16]
  inhibition of growth at 10 µM: 11%
[17]
  inhibition of growth at 10 µM: < 10%
[18]
  inhibition of growth at 10 µM: 19.6%
[19]
  inhibition of growth at 10 µM: 13.1%
[20]
  inhibition of growth at 10 µM: < 10%
[21]
  inhibition of growth at 10 µM: < 10%
[22]
  inhibition of growth at 10 µM: < 10%
[23]
  inhibition of growth at 10 µM: 19.9%
[24]
  inhibition of growth at 10 µM: < 10%
[25]
  inhibition of growth at 10 µM: < 10%
[26]
  inhibition of growth at 10 µM: < 10%
[27]
  inhibition of growth at 10 µM: < 10%
[28]
  inhibition of growth at 10 µM: < 10%
[29]
  inhibition of growth at 10 µM: 12.6%
[30]
  inhibition of growth at 10 µM: 13.1%
[31]
  inhibition of growth at 10 µM: < 10%
[32]
  inhibition of growth at 10 µM: 19.8%
[33]
  inhibition of growth at 10 µM: 12.3%
[34]
  inhibition of growth at 10 µM: < 10%
